Each block holds one molecule with its values, some of them ahead of it. Starred links: 1 amine or outer side, 2 acyl side, 3 side chain; linkers in the order of their positions; H or OH if unused. Non-standard residues stand in square brackets, D forms with d. Residues, ends and D or L forms follow the SMILES beside them. No end group written: not given here. *: point of attachment. dAla(cis-4-NHCOPyz-cHex) = N[C@H](C[C@H]1CC[C@@H](NC(=O)c2cnccn2)CC1)C(=O)O; X4 = O=C(N[C@H]1CC[C@@H](C[C@@H](N[*:1])C(=O)[*:2])CC1)c1cccnc1; X2 = O=C(N[C@H]1CC[C@@H](C[C@H](N[*:1])C(=O)[*:2])CC1)c1cnccn1; X7 = O=C(N[C@H]1CC[C@H](C[C@@H](N[*:1])C(=O)[*:2])CC1)c1cccnc1; dPhe(3,4-Cl2) = N[C@H](Cc1ccc(Cl)c(Cl)c1)C(=O)O; X9 = CN=C(NCCC[C@H](N[*:1])C(=O)[*:2])N(C)C; dPhe(4-Cl) = N[C@H](Cc1ccc(Cl)cc1)C(=O)O; Pyrimidin2yl(4,6-Me2) = Cc1cc(C)nc(*)n1; d2Nal = N[C@H](Cc1ccc2ccccc2c1)C(=O)O; Picolinoyl(6-Me) = Cc1cccc(C(=O)*)n1; Lys(iPr) = CC(C)NCCCC[C@H](N)C(=O)O; Orn(iPr) = CC(C)NCCC[C@H](N)C(=O)O; aIle = CC[C@@H](C)[C@H](N)C(=O)O; d3Pal = N[C@H](Cc1cccnc1)C(=O)O; Nicotinoyl = O=C(c1cccnc1)*; Picolinoyl = O=C(c1ccccn1)*; dOrn = NCCC[C@@H](N)C(=O)O
Experiments:
[1] = tested on: anaesthesized rats; assay: wheal test, intradermal injection; assay type: in vivo, rat; parameters: Wheal (wheal response): unit not given here; conditions: for Wheal: Table I; for Wheal / Wheal Area: 10 ug peptide intradermally; for Wheal (wheal response): Table XIV and text, unit not given
Method in brief: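 Anaesthetized rats given intradermal injection of 10 ug peptide in 100 ul saline; area of the wheal calculated from its diameter.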

[2] = tested on: dispersed pituitary cell culture; assay: dispersed pituitary cell culture assay; assay type: cell-based

Wheal [1]: 99.0 ± 10.3 mm^2 /10
Molecule: CC(=O)N[C@H](Cc1ccc2ccccc2c1)C(=O)N[C@H](Cc1ccc(Cl)cc1)C(=O)N[C@H](Cc1cccnc1)C(=O)N[C@@H](CO)C(=O)N[C@@H](CCCNC(=N)N)C(=O)N[C@H](Cc1cccnc1)C(=O)N[C@@H](CC(C)C)C(=O)N[C@@H](CCCCNC(=O)c1cccnc1)C(=O)N1CCC[C@H]1C(=O)N[C@H](C)C(N)=O [compound 24771] (Ac-[d2Nal][dPhe(4-Cl)][d3Pal]SR[d3Pal]LK(Nicotinoyl)P[dA]-NH2)

Wheal Area [1]: 115.5 ± 2.4 mm^2 /10 μg
Wheal (wheal response) [1]: 115.5 ± 2.4
Molecule: CC(=O)N[C@H](Cc1ccc2ccccc2c1)C(=O)N[C@H](Cc1ccc(Cl)cc1)C(=O)N[C@H](Cc1cccnc1)C(=O)N[C@@H](CO)C(=O)N[C@@H](C[C@H]1CC[C@@H](NC(=O)c2cnccn2)CC1)C(=O)N[C@H](C[C@H]1CC[C@@H](NC(=O)c2cnccn2)CC1)C(=O)N[C@@H](CC(C)C)C(=O)N[C@@H](CCCCNC(C)C)C(=O)N1CCC[C@H]1C(=O)N[C@H](C)C(N)=O [compound 26326] (Ac-[d2Nal][dPhe(4-Cl)][d3Pal]S[X2][dAla(cis-4-NHCOPyz-cHex)]L[Lys(iPr)]P[dA]-NH2)

Wheal [1]: 136.0 mm^2 /10
Molecule: CC(=O)N[C@H](Cc1ccc2ccccc2c1)C(=O)N[C@H](Cc1ccc(Cl)cc1)C(=O)N[C@H](Cc1cccnc1)C(=O)N[C@@H](CO)C(=O)N[C@@H](CCCCNC(=O)c1cccnc1)C(=O)N[C@H](CCCCNC(=O)c1cccnc1)C(=O)N[C@@H](CC(C)C)C(=O)N[C@@H](CCCNC(C)C)C(=O)N1CCC[C@H]1C(=O)N[C@H](C)C(N)=O [compound 24933] (Ac-[d2Nal][dPhe(4-Cl)][d3Pal]SK(Nicotinoyl)[dK](Nicotinoyl)L[Orn(iPr)]P[dA]-NH2)

Wheal [1]: 146.7 ± 3.6 mm^2 /10
Molecule: CC(=O)N[C@H](Cc1ccc2ccccc2c1)C(=O)N[C@H](Cc1ccc(Cl)cc1)C(=O)N[C@H](Cc1cccnc1)C(=O)N[C@@H](CO)C(=O)N[C@@H](CCCCNC(=O)c1cccnc1)C(=O)N[C@H](Cc1c[nH]cn1)C(=O)N[C@@H](CC(C)C)C(=O)N[C@@H](CCCNC(=N)N)C(=O)N1CCC[C@H]1C(=O)N[C@H](C)C(N)=O [compound 24544] (Ac-[d2Nal][dPhe(4-Cl)][d3Pal]SK(Nicotinoyl)[dH]LRP[dA]-NH2)

Wheal (wheal response) [1]: 97.9±2.9
Molecule: CC[C@@H](C)[C@H](NC(=O)[C@@H](CCCCNC(=O)c1ccccn1)NC(=O)[C@H](CCCCNC(=O)c1ccccn1)NC(=O)[C@H](CO)NC(=O)[C@@H](Cc1cccnc1)NC(=O)[C@@H](Cc1ccc(Cl)cc1)NC(=O)[C@@H](Cc1ccc2ccccc2c1)NC(C)=O)C(=O)N[C@@H](CCCCNC(C)C)C(=O)N1CCC[C@H]1C(=O)N[C@H](C)C(N)=O [IBR 25936] (Ac-[d2Nal][dPhe(4-Cl)][d3Pal]SK(Picolinoyl)[dK](Picolinoyl)[aIle][Lys(iPr)]P[dA]-NH2)

Wheal [1]: 150.9 ± 14.0 mm^2 /10
Molecule: CN=C(NCCC[C@H](NC(=O)[C@H](CC(C)C)NC(=O)[C@@H](CCCCNC(=O)c1cccnc1)NC(=O)[C@H](CCCCNC(=O)c1cccnc1)NC(=O)[C@H](CO)NC(=O)[C@@H](Cc1cccnc1)NC(=O)[C@@H](Cc1ccc(Cl)cc1)NC(=O)[C@@H](Cc1ccc2ccccc2c1)NC(C)=O)C(=O)N1CCC[C@H]1C(=O)N[C@H](C)C(N)=O)N(C)C [compound 24987] (Ac-[d2Nal][dPhe(4-Cl)][d3Pal]SK(Nicotinoyl)[dK](Nicotinoyl)L[X9]P[dA]-NH2)

Wheal (wheal response) [1]: 78.6±4.5
Molecule: CC[C@@H](C)[C@H](NC(=O)[C@@H](CCCCNC(=O)c1ccccn1)NC(=O)[C@H](CCCCNC(=O)c1ccccn1)NC(=O)[C@H](CO)NC(=O)[C@@H](Cc1cccnc1)NC(=O)[C@@H](Cc1ccc(Cl)cc1)NC(=O)[C@@H](Cc1ccc2ccccc2c1)NC(C)=O)C(=O)N[C@@H](CCCNC(C)C)C(=O)N1CCC[C@H]1C(=O)N[C@H](C)C(N)=O [IBR 26178] (Ac-[d2Nal][dPhe(4-Cl)][d3Pal]SK(Picolinoyl)[dK](Picolinoyl)[aIle][Orn(iPr)]P[dA]-NH2)

Wheal [1]: 165.2 mm^2 /10
Molecule: CC(=O)N[C@H](Cc1ccc2ccccc2c1)C(=O)N[C@H](Cc1ccc(Cl)cc1)C(=O)N[C@H](Cc1cccnc1)C(=O)N[C@@H](CO)C(=O)N[C@@H](CCCCNC(=O)c1cccnc1)C(=O)N[C@H](CCCNc1nc(C)cc(C)n1)C(=O)N[C@@H](CC(C)C)C(=O)N[C@@H](CCCCNC(C)C)C(=O)N1CCC[C@H]1C(=O)N[C@H](C)C(N)=O [compound 25334] (Ac-[d2Nal][dPhe(4-Cl)][d3Pal]SK(Nicotinoyl)[dOrn](Pyrimidin2yl(4,6-Me2))L[Lys(iPr)]P[dA]-NH2)

Wheal Area [1]: 101.8 ± 4.3 mm^2 /10 μg
Molecule: CC(=O)N[C@H](Cc1ccc2ccccc2c1)C(=O)N[C@H](Cc1ccc(Cl)cc1)C(=O)N[C@H](Cc1cccnc1)C(=O)N[C@@H](CO)C(=O)N[C@@H](CCCCNC(=O)c1cccnc1)C(=O)N[C@H](C[C@H]1CC[C@@H](NC(=O)c2cccnc2)CC1)C(=O)N[C@@H](CC(C)C)C(=O)N[C@@H](CCCCNC(C)C)C(=O)N1CCC[C@H]1C(=O)N[C@H](C)C(N)=O [IBR 25648] (Ac-[d2Nal][dPhe(4-Cl)][d3Pal]SK(Nicotinoyl)[X4]L[Lys(iPr)]P[dA]-NH2)

Wheal [1]: 119.5 ± 3.2 mm^2 /10
Molecule: CC(=O)N[C@H](Cc1ccc2ccccc2c1)C(=O)N[C@H](Cc1ccc(Cl)cc1)C(=O)N[C@H](Cc1cccnc1)C(=O)N[C@@H](CO)C(=O)N[C@@H](CCCCNC(=O)c1cccnc1)C(=O)N[C@H](C[C@H]1CC[C@H](NC(=O)c2cccnc2)CC1)C(=O)N[C@@H](CC(C)C)C(=O)N[C@@H](CCCCNC(C)C)C(=O)N1CCC[C@H]1C(=O)N[C@H](C)C(N)=O [compound 25647] (Ac-[d2Nal][dPhe(4-Cl)][d3Pal]SK(Nicotinoyl)[X7]L[Lys(iPr)]P[dA]-NH2)

Molecule: luteinizing hormone releasing hormone (QHWSYGLRPG; ends and bridges not checked; UniProt P01148 24-33, looked up) [LHRH, natural hormone used as agonist in the pituitary cell culture assay]
FSH ([2]; LHRH 0.1 nM alone): 221 ± 18 ng/mL
RLH ([2]; LHRH 0.1 nM alone): 40 ± 7 ng/mL
FSH ([2]; LHRH 0.3 nM alone): 562 ± 48 ng/mL
RLH ([2]; LHRH 0.3 nM alone): 80 ± 1 ng/mL
FSH ([2]; LHRH 1.0 nM alone): 802 ng/mL
RLH ([2]; LHRH 1.0 nM alone): 118 ng/mL
FSH ([2]; LHRH 3.0 nM alone): 646 ± 123 ng/mL
RLH ([2]; LHRH 3.0 nM alone): 150 ± 1 ng/mL
FSH ([2]; LHRH 10.0 nM alone): 602 ± 26 ng/mL
RLH ([2]; LHRH 10.0 nM alone): 141 ± 4 ng/mL
FSH ([2]; LHRH 30.0 nM alone): 557 ± 15 ng/mL
RLH ([2]; LHRH 30.0 nM alone): 152 ± 7 ng/mL

Wheal Area [1]: 139.8 ± 7.1 mm^2 /10 μg
Molecule: CC(=O)N[C@H](Cc1ccc2ccccc2c1)C(=O)N[C@H](Cc1ccc(Cl)c(Cl)c1)C(=O)N[C@H](Cc1cccnc1)C(=O)N[C@@H](CO)C(=O)N[C@@H](CCCCNC(=O)c1ccccn1)C(=O)N[C@H](CCCCNC(=O)c1ccccn1)C(=O)N[C@@H](CC(C)C)C(=O)N[C@@H](CCCCNC(C)C)C(=O)N1CCC[C@H]1C(=O)N[C@H](C)C(N)=O [compound 25807] (Ac-[d2Nal][dPhe(3,4-Cl2)][d3Pal]SK(Picolinoyl)[dK](Picolinoyl)L[Lys(iPr)]P[dA]-NH2)

Wheal Area [1]: 106.2 ± 4.3 mm^2 /10 μg
Molecule: CC(=O)N[C@H](Cc1ccc2ccccc2c1)C(=O)N[C@H](Cc1ccc(Cl)cc1)C(=O)N[C@H](Cc1cccnc1)C(=O)N[C@@H](CO)C(=O)N[C@@H](CCCCNC(=O)c1cccc(C)n1)C(=O)N[C@H](CCCCNC(=O)c1cccc(C)n1)C(=O)N[C@@H](CC(C)C)C(=O)N[C@@H](CCCCNC(C)C)C(=O)N1CCC[C@H]1C(=O)N[C@H](C)C(N)=O [compound 25808] (Ac-[d2Nal][dPhe(4-Cl)][d3Pal]SK(Picolinoyl(6-Me))[dK](Picolinoyl(6-Me))L[Lys(iPr)]P[dA]-NH2)

Wheal Area [1]: 127.8 ± 4.9 mm^2 /10 μg
Wheal (wheal response) [1]: 127.8 ± 4.9
Molecule: CC(=O)N[C@H](Cc1ccc2ccccc2c1)C(=O)N[C@H](Cc1ccc(Cl)cc1)C(=O)N[C@H](Cc1cccnc1)C(=O)N[C@@H](CO)C(=O)N[C@@H](CCCCNC(=O)c1ccccn1)C(=O)N[C@H](C[C@H]1CC[C@@H](NC(=O)c2cnccn2)CC1)C(=O)N[C@H](C(=O)N[C@@H](CCCCNC(C)C)C(=O)N1CCC[C@H]1C(=O)N[C@H](C)C(N)=O)C(C)C [compound 26325] (Ac-[d2Nal][dPhe(4-Cl)][d3Pal]SK(Picolinoyl)[dAla(cis-4-NHCOPyz-cHex)]V[Lys(iPr)]P[dA]-NH2)

Wheal [1]: 112 mm^2 /10
Molecule: CC(=O)N[C@H](Cc1ccc2ccccc2c1)C(=O)N[C@H](Cc1ccc(Cl)cc1)C(=O)N[C@H](Cc1cccnc1)C(=O)N[C@@H](CO)C(=O)N[C@@H](CCCCNC(=O)c1cccnc1)C(=O)N[C@H](Cc1cccnc1)C(=O)N[C@@H](CC(C)C)C(=O)N[C@@H](CCCNC(=N)N)C(=O)N1CCC[C@H]1C(=O)N[C@H](C)C(N)=O [compound 22495] (Ac-[d2Nal][dPhe(4-Cl)][d3Pal]SK(Nicotinoyl)[d3Pal]LRP[dA]-NH2)
